The values that follow are results of earlier work, collected in patent US10588873B2, “Topical antifungal compositions” (Exodos Life Sciences LP, priority 2015, dated 2020).

For this data set the following is noted: only or first printed pKa.

Regarding `CCCCCC(=O)O` [caproic (hexanoic) acid], the pKa is 4.88.

In the case of `CC(=O)CCC(=O)O` [levulinic acid], the pKa is listed as 4.6.
